Reference: the supplement of paper PMC8612539
In brackets after ≈: the same amount, converted by molar mass.

Tests used:
Enterococcus spp. = assay: minimum inhibitory concentration (MIC)
Experimental: (§1)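 Broth microdilution MIC (Sensititre BOPO7F bovine plate, CLSI methods) of 19 antimicrobials against field isolates of P. multocida, M. haemolytica, H. somni (deep nasopharyngeal swabs) and E. coli, Enterococcus spp. (rectal swabs) from weaned dairy heifers. Incubation 16-24 h at 35 C. MIC is the lowest concentration preventing visible growth. Values with <= or > lie at the tested range limits. Trimethoprim-sulfamethoxazole is given as the trimethoprim component of a 1:19 mixture.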

Histophilus somni = assay: minimum inhibitory concentration (MIC)
Experimental: as §1

CS(=O)(=O)c1ccc([C@@H](O)[C@@H](CF)NC(=O)C(Cl)Cl)cc1 [Florfenicol]
minimum inhibitory concentration [mg/L]
Settings | Enterococcus spp. | Histophilus somni
isolate (source animal id): 2 | 2 (≈ 5.58 µM) | –
isolate (source animal id): 3 | – | ≤ 0.25
isolate (source animal id): 4 | – | 1 (≈ 2.79 µM)
isolate (source animal id): 7 | – | 1 (≈ 2.79 µM)
isolate (source animal id): 14 | – | 1 (≈ 2.79 µM)
isolate (source animal id): 15 | – | ≤ 0.25
isolate (source animal id): 17 | – | 1 (≈ 2.79 µM)
isolate (source animal id): 18 | – | ≤ 0.25
isolate (source animal id): 20 | – | 1 (≈ 2.79 µM)
isolate (source animal id): 23 | – | ≤ 0.25
isolate (source animal id): 35 | > 8 | –
isolate (source animal id): 42 | 2 (≈ 5.58 µM) | –
isolate (source animal id): 44 | 2 (≈ 5.58 µM) | –
isolate (source animal id): 45 | – | 1 (≈ 2.79 µM)
isolate (source animal id): 53 | – | 1 (≈ 2.79 µM)
isolate (source animal id): 79 | 4 (≈ 11.2 µM) | –
isolate (source animal id): 83 | – | 0.5 (≈ 1.4 µM)
isolate (source animal id): 88 | 2 (≈ 5.58 µM) | 0.5 (≈ 1.4 µM)
isolate (source animal id): 91 | 2 (≈ 5.58 µM) | –
isolate (source animal id): 92 | 2 (≈ 5.58 µM) | 0.5 (≈ 1.4 µM)
isolate (source animal id): 93 | – | ≤ 0.25
isolate (source animal id): 99 | – | 0.5 (≈ 1.4 µM)
isolate (source animal id): 100 | – | 0.5 (≈ 1.4 µM)
isolate (source animal id): 105 | – | 0.5 (≈ 1.4 µM)
isolate (source animal id): 107 | – | 0.5 (≈ 1.4 µM)
isolate (source animal id): 108 | – | 1 (≈ 2.79 µM)
isolate (source animal id): 109 | – | 0.5 (≈ 1.4 µM)
isolate (source animal id): 110 | – | 0.5 (≈ 1.4 µM)
isolate (source animal id): 111 | 2 (≈ 5.58 µM) | –
isolate (source animal id): 117 | – | 0.5 (≈ 1.4 µM)
isolate (source animal id): 121 | – | 0.5 (≈ 1.4 µM)
isolate (source animal id): 122 | > 8 | –
isolate (source animal id): 123 | 2 (≈ 5.58 µM) | ≤ 0.25
isolate (source animal id): 124 | – | ≤ 0.25
isolate (source animal id): 127 | – | ≤ 0.25
isolate (source animal id): 128 | – | 0.5 (≈ 1.4 µM)
isolate (source animal id): 130 | – | 1 (≈ 2.79 µM)
isolate (source animal id): 132 | – | 0.5 (≈ 1.4 µM)
isolate (source animal id): 133 | 2 (≈ 5.58 µM) | –
isolate (source animal id): 135 | – | 0.5 (≈ 1.4 µM)
isolate (source animal id): 140 | – | 0.5 (≈ 1.4 µM)
isolate (source animal id): 141 | – | ≤ 0.25
isolate (source animal id): 142 | – | 1 (≈ 2.79 µM)
isolate (source animal id): 144 | – | ≤ 0.25
isolate (source animal id): 146 | – | 0.5 (≈ 1.4 µM)
isolate (source animal id): 147 | – | 1 (≈ 2.79 µM)
isolate (source animal id): 151 | – | 0.5 (≈ 1.4 µM)
isolate (source animal id): 153 | – | ≤ 0.25
isolate (source animal id): 154 | – | 1 (≈ 2.79 µM)
isolate (source animal id): 156 | – | 1 (≈ 2.79 µM)
isolate (source animal id): 157 | – | ≤ 0.25
isolate (source animal id): 158 | 2 (≈ 5.58 µM) | –
isolate (source animal id): 168 | 2 (≈ 5.58 µM) | –
isolate (source animal id): 169 | 2 (≈ 5.58 µM) | –
isolate (source animal id): 171 | 4 (≈ 11.2 µM) | –
isolate (source animal id): 175 | 4 (≈ 11.2 µM) | –
isolate (source animal id): 176 | – | ≤ 0.25
isolate (source animal id): 177 | 4 (≈ 11.2 µM) | –
isolate (source animal id): 181 | 2 (≈ 5.58 µM) | –
isolate (source animal id): 182 | 2 (≈ 5.58 µM) | –
isolate (source animal id): 183 | 2 (≈ 5.58 µM) | ≤ 0.25
isolate (source animal id): 186 | – | ≤ 0.25
isolate (source animal id): 187 | 2 (≈ 5.58 µM) | –
isolate (source animal id): 190 | 2 (≈ 5.58 µM) | –
isolate (source animal id): 194 | 2 (≈ 5.58 µM) | –
isolate (source animal id): 195 | 2 (≈ 5.58 µM) | –
isolate (source animal id): 196 | – | ≤ 0.25
isolate (source animal id): 197 | 2 (≈ 5.58 µM) | –
isolate (source animal id): 198 | – | ≤ 0.25
isolate (source animal id): 200 | – | ≤ 0.25
isolate (source animal id): 206 | – | ≤ 0.25
isolate (source animal id): 208 | – | ≤ 0.25
isolate (source animal id): 210 | – | ≤ 0.25
isolate (source animal id): 211 | 2 (≈ 5.58 µM) | –
isolate (source animal id): 212 | – | ≤ 0.25
isolate (source animal id): 214 | 2 (≈ 5.58 µM) | –
isolate (source animal id): 215 | – | ≤ 0.25
isolate (source animal id): 216 | – | ≤ 0.25
isolate (source animal id): 218 | – | ≤ 0.25
isolate (source animal id): 219 | – | ≤ 0.25
isolate (source animal id): 222 | 2 (≈ 5.58 µM) | –
isolate (source animal id): 223 | 2 (≈ 5.58 µM) | –
isolate (source animal id): 224 | – | ≤ 0.25
isolate (source animal id): 228 | 2 (≈ 5.58 µM) | ≤ 0.25
isolate (source animal id): 230 | 2 (≈ 5.58 µM) | ≤ 0.25
isolate (source animal id): 233 | – | 1 (≈ 2.79 µM)
isolate (source animal id): 235 | 2 (≈ 5.58 µM) | –
isolate (source animal id): 236 | 2 (≈ 5.58 µM) | –
isolate (source animal id): 238 | – | ≤ 0.25
isolate (source animal id): 239 | 2 (≈ 5.58 µM) | 1 (≈ 2.79 µM)
isolate (source animal id): 241 | 2 (≈ 5.58 µM) | ≤ 0.25
isolate (source animal id): 242 | – | ≤ 0.25
isolate (source animal id): 243 | – | ≤ 0.25
isolate (source animal id): 244 | 2 (≈ 5.58 µM) | –
isolate (source animal id): 245 | – | 1 (≈ 2.79 µM)
isolate (source animal id): 246 | 2 (≈ 5.58 µM) | ≤ 0.25
isolate (source animal id): 247 | 4 (≈ 11.2 µM) | ≤ 0.25
isolate (source animal id): 248 | – | ≤ 0.25
isolate (source animal id): 250 | 2 (≈ 5.58 µM) | ≤ 0.25
isolate (source animal id): 251 | – | ≤ 0.25
isolate (source animal id): 252 | 4 (≈ 11.2 µM) | ≤ 0.25
isolate (source animal id): 254 | – | ≤ 0.25
isolate (source animal id): 258 | – | ≤ 0.25
isolate (source animal id): 259 | – | ≤ 0.25
isolate (source animal id): 262 | – | 1 (≈ 2.79 µM)
isolate (source animal id): 264 | – | ≤ 0.25
isolate (source animal id): 265 | – | ≤ 0.25
isolate (source animal id): 266 | – | ≤ 0.25
isolate (source animal id): 267 | – | ≤ 0.25
isolate (source animal id): 268 | 2 (≈ 5.58 µM) | –
isolate (source animal id): 269 | – | ≤ 0.25
isolate (source animal id): 271 | – | ≤ 0.25
isolate (source animal id): 272 | – | ≤ 0.25
isolate (source animal id): 274 | – | 1 (≈ 2.79 µM)
isolate (source animal id): 276 | – | ≤ 0.25
isolate (source animal id): 278 | – | ≤ 0.25
isolate (source animal id): 280 | – | ≤ 0.25
isolate (source animal id): 281 | – | ≤ 0.25
isolate (source animal id): 282 | 1 (≈ 2.79 µM) | –
isolate (source animal id): 283 | – | ≤ 0.25
isolate (source animal id): 285 | 4 (≈ 11.2 µM) | –
isolate (source animal id): 288 | – | ≤ 0.25
isolate (source animal id): 289 | 2 (≈ 5.58 µM) | –
isolate (source animal id): 290 | 2 (≈ 5.58 µM) | –
isolate (source animal id): 291 | – | 0.5 (≈ 1.4 µM)
isolate (source animal id): 292 | – | ≤ 0.25
isolate (source animal id): 296 | 2 (≈ 5.58 µM) | ≤ 0.25
isolate (source animal id): 298 | 2 (≈ 5.58 µM) | –
isolate (source animal id): 301 | 2 (≈ 5.58 µM) | –
isolate (source animal id): 306 | – | ≤ 0.25
isolate (source animal id): 310 | 4 (≈ 11.2 µM) | –
isolate (source animal id): 320 | 1 (≈ 2.79 µM) | –
isolate (source animal id): 331 | 2 (≈ 5.58 µM) | –
isolate (source animal id): 333 | 2 (≈ 5.58 µM) | –
isolate (source animal id): 336 | – | ≤ 0.25
isolate (source animal id): 337 | – | ≤ 0.25
isolate (source animal id): 341 | > 8 | ≤ 0.25
